Experimental data: BindingDB's records for patent US12187701 (Dana-Farber Cancer Institute, 2025)

Molecular target: Cyclin-dependent kinase 14 (Homo sapiens, UniProt O94921)
Experiment: In vitro Kinase Assay
Protocol: Lanthascreen Eu kinase binding assays were conducted for Cdk14/CycY largely as performed in the commercial assay service by Life Technologies, but included a 30 minute pre-incubation step of the kinase with candidate compounds to facilitate covalent bond formation.

Chain of Cyclin-dependent kinase 14 (O94921 whole entry): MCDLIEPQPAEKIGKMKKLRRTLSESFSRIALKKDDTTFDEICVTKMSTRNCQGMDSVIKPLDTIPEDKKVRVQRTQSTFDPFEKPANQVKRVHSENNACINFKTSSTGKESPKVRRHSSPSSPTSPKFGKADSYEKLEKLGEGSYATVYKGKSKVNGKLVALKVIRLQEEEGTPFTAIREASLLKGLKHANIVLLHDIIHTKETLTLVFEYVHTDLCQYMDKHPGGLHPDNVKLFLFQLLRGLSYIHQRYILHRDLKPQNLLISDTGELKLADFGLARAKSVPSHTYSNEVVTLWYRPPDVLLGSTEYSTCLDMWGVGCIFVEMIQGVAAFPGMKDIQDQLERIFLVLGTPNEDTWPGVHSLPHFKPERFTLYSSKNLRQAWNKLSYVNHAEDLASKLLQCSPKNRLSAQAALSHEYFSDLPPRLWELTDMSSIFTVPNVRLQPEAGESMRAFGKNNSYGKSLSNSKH

IC50: 108 nM
Structure (SMILES): CN(C)C/C=C/C(=O)Nc1cccc(CNC(=O)c2n[nH]cc2NC(=O)c2c(Cl)cccc2Cl)c1 [US12187701, Compound FMF-05-064-2]
